In ChEMBL document CHEMBL1201862, “PubChem BioAssay data set” (2004):
Active and inactive are the calls of the source.

How the values were obtained:
Phospholipase A2 = Phospholipase A2 (Homo sapiens, UniProt P04054); assay type: functional;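 also: confirmatory dose-response counterscreen on phospholipase A2, testing hits that came from an ultra-high-throughput screen for ATG4B inhibitors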
[1] = molecular target: T1, Ubiquitin-conjugating enzyme E2 N (Homo sapiens, UniProt P61088); assay type: functional
T1 sequence (P61088 whole entry): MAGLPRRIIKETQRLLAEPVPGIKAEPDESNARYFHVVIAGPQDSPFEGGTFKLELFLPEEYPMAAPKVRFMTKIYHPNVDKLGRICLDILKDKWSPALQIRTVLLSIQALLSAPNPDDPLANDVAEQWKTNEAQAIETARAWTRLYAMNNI

[2] = system: Streptococcus sp. 'group A'; test: Streptococcus pyogenes SK(-)GAS viability under kanamycin – luminescence, BacTiterGlo, confirmation, counter-screen for streptokinase expression inhibitor project, dose response (AID 1900); assay type: functional, organism-based
[3] = Luminescence Cell-Based Dose Retest to Confirm Inhibitors of Cancer Stem Cells. [Related pubchem assays (depositor defined):AID2717, AID2721]; assay type: functional; settings: Homo sapiens
[4] = molecular target: T2, Replicative DNA helicase DnaB (Mycobacterium tuberculosis, UniProt P9WMR3); test: DnaB intein splicing inhibitors, dose response, biochemical, cell-free fluorescence (AID 449749); assay type: functional
T2 sequence (P9WMR3 whole entry): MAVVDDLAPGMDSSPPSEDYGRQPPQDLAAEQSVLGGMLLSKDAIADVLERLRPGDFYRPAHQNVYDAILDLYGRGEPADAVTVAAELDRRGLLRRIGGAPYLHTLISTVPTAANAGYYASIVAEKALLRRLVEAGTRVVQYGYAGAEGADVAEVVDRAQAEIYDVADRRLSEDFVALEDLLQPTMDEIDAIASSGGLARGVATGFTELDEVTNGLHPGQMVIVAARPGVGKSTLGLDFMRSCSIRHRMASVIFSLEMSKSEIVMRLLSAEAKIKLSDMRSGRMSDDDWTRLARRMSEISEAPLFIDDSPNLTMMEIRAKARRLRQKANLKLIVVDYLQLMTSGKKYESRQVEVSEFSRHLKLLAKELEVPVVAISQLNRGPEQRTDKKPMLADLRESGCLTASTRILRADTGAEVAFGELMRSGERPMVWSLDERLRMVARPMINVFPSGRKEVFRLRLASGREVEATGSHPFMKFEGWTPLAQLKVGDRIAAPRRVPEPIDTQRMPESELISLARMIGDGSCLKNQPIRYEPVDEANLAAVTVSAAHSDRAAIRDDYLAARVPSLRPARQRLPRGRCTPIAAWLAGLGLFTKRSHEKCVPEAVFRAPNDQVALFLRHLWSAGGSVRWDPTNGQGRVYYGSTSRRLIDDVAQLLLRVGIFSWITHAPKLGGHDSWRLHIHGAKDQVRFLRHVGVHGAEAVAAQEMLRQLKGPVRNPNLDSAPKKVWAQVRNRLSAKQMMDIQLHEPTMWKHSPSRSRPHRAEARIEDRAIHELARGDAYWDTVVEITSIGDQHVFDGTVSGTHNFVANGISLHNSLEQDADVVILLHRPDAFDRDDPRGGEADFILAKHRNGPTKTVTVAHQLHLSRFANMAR

Protein RecA = molecular target: T3, Protein RecA (Mycobacterium tuberculosis, UniProt P9WHJ3); test: Fluorescence Cell-Free Homogeneous Dose Retest to Identify Inhibitors of RecA-Intein Splicing Activity. [Related pubchem assays (depositor defined):AID2097, AID2223, AID489010, AID492950]; assay type: functional
T3 sequence (P9WHJ3 whole entry): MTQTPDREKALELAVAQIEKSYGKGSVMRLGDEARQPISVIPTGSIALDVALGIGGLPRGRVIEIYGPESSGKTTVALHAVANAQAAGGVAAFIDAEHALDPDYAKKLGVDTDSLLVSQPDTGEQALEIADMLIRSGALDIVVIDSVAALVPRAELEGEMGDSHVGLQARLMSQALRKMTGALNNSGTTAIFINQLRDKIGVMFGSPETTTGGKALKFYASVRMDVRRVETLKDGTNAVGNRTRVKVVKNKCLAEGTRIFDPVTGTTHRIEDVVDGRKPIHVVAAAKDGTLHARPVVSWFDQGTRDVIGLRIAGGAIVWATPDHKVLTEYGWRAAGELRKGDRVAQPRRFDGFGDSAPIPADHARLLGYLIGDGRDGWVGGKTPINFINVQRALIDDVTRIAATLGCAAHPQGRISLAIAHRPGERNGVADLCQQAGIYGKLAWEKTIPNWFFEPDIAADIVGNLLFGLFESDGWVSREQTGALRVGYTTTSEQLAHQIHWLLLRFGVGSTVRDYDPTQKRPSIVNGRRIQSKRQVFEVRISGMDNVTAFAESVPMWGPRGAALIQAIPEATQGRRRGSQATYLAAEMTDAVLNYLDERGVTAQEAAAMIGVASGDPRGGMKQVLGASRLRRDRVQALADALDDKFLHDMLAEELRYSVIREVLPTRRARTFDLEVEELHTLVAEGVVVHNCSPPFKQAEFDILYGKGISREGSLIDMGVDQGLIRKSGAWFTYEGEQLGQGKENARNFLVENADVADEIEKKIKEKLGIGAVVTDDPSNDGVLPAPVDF

[5] = molecular target: T1, Ubiquitin-conjugating enzyme E2 N; assay type: functional; remark: listed apart in the source
Streptokinase A = molecular target: T4, Streptokinase A (Streptococcus pyogenes serotype M1, UniProt P10520); test: viability-normalized secreted streptokinase activity reduction – plasminogen activation absorbance, OD405, dose response (AID 1914); assay type: functional, Streptococcus pyogenes M1 GAS;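 also: secreted streptokinase activity via plasminogen activation per viability signal from cell pellet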
T4 sequence (P10520 whole entry): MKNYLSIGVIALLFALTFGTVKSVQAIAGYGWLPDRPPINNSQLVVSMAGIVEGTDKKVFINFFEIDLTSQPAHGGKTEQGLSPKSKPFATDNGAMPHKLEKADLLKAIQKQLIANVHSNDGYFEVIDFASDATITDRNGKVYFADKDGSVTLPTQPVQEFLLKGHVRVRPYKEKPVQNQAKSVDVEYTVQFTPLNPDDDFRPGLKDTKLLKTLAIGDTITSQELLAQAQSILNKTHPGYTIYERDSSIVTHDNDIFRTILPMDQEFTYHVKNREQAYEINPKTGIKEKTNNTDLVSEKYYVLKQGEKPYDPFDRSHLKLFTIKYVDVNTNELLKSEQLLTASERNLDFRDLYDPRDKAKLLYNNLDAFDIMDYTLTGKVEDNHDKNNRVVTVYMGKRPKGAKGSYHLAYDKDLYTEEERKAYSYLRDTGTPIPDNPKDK

Cysteine protease ATG4B = Cysteine protease ATG4B (Homo sapiens, UniProt Q9Y4P1); assay type: functional;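 also: Fluorescence-based dose-response confirmation assay measuring inhibition of ATG4B activity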
Bcl-2-related protein A1 = molecular target: T5, Bcl-2-related protein A1 (Mus musculus, UniProt Q07440); assay type: functional;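 also: confirmatory dose–response counterscreen on Bfl-1, used to check hits from a UBC13 polyubiquitin inhibitor campaign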
T5 sequence (Q07440 whole entry): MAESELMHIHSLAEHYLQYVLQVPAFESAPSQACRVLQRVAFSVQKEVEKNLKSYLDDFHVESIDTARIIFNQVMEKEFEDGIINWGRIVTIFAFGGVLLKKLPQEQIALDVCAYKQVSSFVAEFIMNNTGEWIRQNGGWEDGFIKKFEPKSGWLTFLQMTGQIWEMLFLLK

Streptococcus = test: GAS UMAA2166 growth inhibition – luminescence, BacTiterGlo, counter-screen for streptokinase expression inhibitor project, dose response (AID 1915); assay type: functional, organism-based;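 also: potency for reduction of bacterial viability or growth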

Cysteine protease ATG4B, sequence (Q9Y4P1 whole entry): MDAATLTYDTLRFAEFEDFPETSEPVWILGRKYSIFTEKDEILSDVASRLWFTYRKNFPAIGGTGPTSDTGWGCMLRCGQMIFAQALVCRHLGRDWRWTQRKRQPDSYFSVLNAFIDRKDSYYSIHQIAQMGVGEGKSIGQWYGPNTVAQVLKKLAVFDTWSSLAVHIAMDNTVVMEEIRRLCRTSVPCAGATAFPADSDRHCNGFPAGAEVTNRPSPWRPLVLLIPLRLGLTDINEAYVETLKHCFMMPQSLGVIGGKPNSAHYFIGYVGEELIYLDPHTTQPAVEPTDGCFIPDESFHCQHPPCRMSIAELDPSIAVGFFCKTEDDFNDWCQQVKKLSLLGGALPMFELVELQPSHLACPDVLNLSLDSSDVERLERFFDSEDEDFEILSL
Phospholipase A2, sequence (P04054 whole entry): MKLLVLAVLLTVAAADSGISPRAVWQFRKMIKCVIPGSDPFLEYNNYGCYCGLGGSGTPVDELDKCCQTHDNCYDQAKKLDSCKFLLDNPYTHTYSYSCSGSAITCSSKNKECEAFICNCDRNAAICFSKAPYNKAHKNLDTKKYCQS

CCCCCCCCOC(=O)c1c(CSC(=N)N)n(C)c2cc(Br)c(OC(C)=O)cc12
> 150 µM (not active): EC50 (Streptokinase A)
inactive: IC50 (Phospholipase A2) 52.2 µM | IC50 (Bcl-2-related protein A1) > 20 µM
active: IC50 [1] 4.22 µM | EC50 [2] 2.05 µM | AC50 [3] 2.7 µM | AC50 [4] 4.36 µM | EC50 (Protein RecA) 1.57 µM | IC50 [5] 12.4 µM | IC50 (Cysteine protease ATG4B) 8.63 µM | EC50 (Streptococcus) 8.01 µM
